# Source: patent publication US20040072770A1, “Methods for specifically inhibiting histone deacetylase-7 and 8” (priority 2002, published 2004)
# Columns and labels:
# [1] = system: A549 cells; test: Inhibition of agar colony formation, A549; format: cell-based, human; conditions: 50 nM oligos for 48 hours, vs cells treated with lipofectin
# [2] = system: T24 cells; test: Apoptosis (Cell Death Detection ELISA), T24; format: cell-based, human; conditions: 50 nM, 48 hours, over mismatch control
# Experimental: (§1) For all ex vivo oligo treatment, human A549 human […] carcinoma cells were seeded in 10 cm tissue culture dishes one day prior to oligonucleotide treatment. The cell lines were obtained from the American Type Culture Collection (ATCC) (Manassas, Va.) and were grown under the recommended culture conditions. Before the addition of the oligonucleotides, cells were washed with PBS (phosphate buffered saline). Next, lipofectin transfection reagent (GIBCO BRL Mississauga, Ontario, Calif.), at a concentration of 6.25 μg/ ml, was added to serum free OPTIMEM medium (GIBCO BRL, Rockville, Md.), which was then added to the cells. The oligonucleotides were added directly to the cells (i.e., one oligonucleotide per plate of cells). Mismatched oligonucleotides were used as controls. The same concentration of oligonucleotide (e.g., 50 nM) was used per plate of cells for each oligonucleotide tested.
# (§2) In order to determine the effect of HDAC ODNs on cell growth inhibition and cell death through apoptosis, A549, T24, DuI45, HCT116 cells (ATCC, Manassas, Va.), or HMEC cells (BioWhittaker, Walkersville, Md.) were treated with HDAC ODNs as previously described.
# (§3) For the apoptosis study, cells were analyzed using the Cell Death Detection ELISA^Plus kit (Roche Diagnostic GmBH, Mannheim, Germany) according to the manufacturer's directions. Typically, 10,000 cells were plated in 96-well tissue culture dishes for 2 hours before harvest and lysis. Each sample was analyzed in duplicate. ELISA reading was done using a MR700 plate reader (DYNEX Technology, Ashford, Middlesex, England) at 410 nm. The reference was set at 490 nm.
# [3] = system: MDAmb231 cells; test: Inhibition of agar colony formation, MDAmb231; format: cell-based, human; conditions: 50 nM oligos for 48 hours, vs cells treated with lipofectin
# [4] = system: Du145 cells; test: Growth inhibition by antisense oligos, Du145; format: cell-based, human; conditions: 50 nM, 48 hour, vs cells treated with lipofectin
# Experimental: as §1, §2
# (§4) For the cell growth inhibition analysis, human cancer or normal cells were treated with 50 nM of paired AS or MM oligos directed against human HDAC-1, HDAC-7 or HDAC-8for up to 96 hours. Cell numbers were counted every day by trypan blue exclusion. Percentage of inhibition was calculated as (100 - AS cell numbers/control cell numbers)%.
# [5] = system: MDAmb231 cells; test: Apoptosis (Cell Death Detection ELISA), MDAmb231; format: cell-based, human; conditions: 50 nM, 48 hours, over mismatch control
# [6] = system: H446 cells; test: Growth inhibition by antisense oligos, H446; format: cell-based, human; conditions: 75 nM treatment for 2 days, vs cells treated with lipofectin
# [7] = system: A549 cells; test: Apoptosis (Cell Death Detection ELISA), A549; format: cell-based, human; conditions: 50 nM, 48 hours, over mismatch control
# Experimental: as §1, §2, §3
# […] Similarly, A549 cells were treated with 20 nM of HDAC1 AS in combination with 20 nM of each of AS inhibitors against human HDAC2 to HDAC8. After 48 hour treatment, A549 cells were harvested and analyzed for apoptosis by ELISA as described previously. Apoptosis of A549 cells by AS inhibition was compared to that of cells treated with 1 uM TSA for 16 hours. […] The control oligo UMM had no effect on induction of apoptosis.
# [8] = system: HCT116 cells; test: Apoptosis (Cell Death Detection ELISA), HCT116; format: cell-based, human; conditions: 50 nM, 48 hours, over mismatch control
# Experimental: as §1, with “tested. […]” for “tested.”
# as §3, with “Typically, 10,000 cells were plated in 96-well tissue culture dishes for 2 hours before harvest and lysis.” left out, “The reference was set at 490 nm.” left out
# [9] = system: MCF-7 cells; test: Growth inhibition by antisense oligos, MCF-7; format: cell-based, human; conditions: 75 nM treatment for 2 days, vs cells treated with lipofectin
# Experimental: [The procedure below names another cell line; the source lists this cell line under the same test.] as §1, with “tested. […]” for “tested.”
# as §4
# [10] = system: MCF-7 cells; test: Apoptosis (Cell Death Detection ELISA), MCF-7; format: cell-based, human; conditions: 50 nM, 48 hours, over mismatch control
# [11] = system: human HDAC-1 RNA; test: HDAC-1 RNA expression screen in T24 cells, Northern blot; format: cell-based; conditions: 100 nM, 24 hours
# Experimental: To identify antisense oligodeoxynucleotide (ODN) capable of inhibiting HDAC-1 expression in human cancer cells, eleven phosphorothioate ODNs containing sequences complementary to the 5′ or 3′ UTR of the human HDAC-1 gene (GenBank Accession No. U50079) were initially screened in T24 cells at 100 nM. Cells were harvested after 24 hours of treatment, and HDAC-1 RNA expression was analyzed by Northern blot analysis. […] HDAC-1 MM oligo was created as a control; compared to the antisense oligo, it has a 6-base mismatch.
# [12] = system: A549 cells; test: Growth inhibition by antisense oligos, A549; format: cell-based, human; conditions: 50 nM, 48 hour, vs cells treated with lipofectin
# Experimental: as §1, §2, §4
# [13] = system: MDAmb231 cells; test: Growth inhibition by antisense oligos, MDAmb231; format: cell-based, human; conditions: 50 nM, 48 hour, vs cells treated with lipofectin
# Experimental: [The procedure below names another cell line; the source lists this cell line under the same test.] as §1, with “tested. […]” for “tested.”
# as §4
# [14] = system: T24 cells; test: Growth inhibition by antisense oligos, T24; format: cell-based, human; conditions: 50 nM, 48 hour, vs cells treated with lipofectin
# Experimental: as §1, with “tested. […]” for “tested.”
# as §4
substance,measurement,setting,value
5′-GAAACGTGAGGGACTCAGCA-3′ (chemistry not given here) [HD1 AS1],inhibition of agar colony formation A549,[1],+ (“+” means >35% inhibition of agar colony formation of cells treated with 50 nM oligos for 48 hours compared to that of cells treated with lipofectin)
same,Apoptosis T24,[2],"+ (“+” means the induction of apoptosis at least 2 fold over mismatch control (50 nM, 48 hours))"
same,inhibition of agar colony formation MDAmb 231,[3],+ (“+” means >35% inhibition of agar colony formation of cells treated with 50 nM oligos for 48 hours compared to that of cells treated with lipofectin)
same,Growth Inhibition Du145,[4],"+ (“+” means >35% inhibition of cell growth by antisense oligos (50 nM, 48 hour) compared to that of cells treated with lipofectin)"
same,Apoptosis MDAmb 231,[5],"+ (“+” means the induction of apoptosis at least 2 fold over mismatch control (50 nM, 48 hours))"
same,Growth Inhibition H446,[6],"+ (“+” means >35% inhibition of cell growth by antisense oligos (50 nM, 48 hour) compared to that of cells treated with lipofectin)"
same,Apoptosis A549,[7],"+ (“+” means the induction of apoptosis at least 2 fold over mismatch control (50 nM, 48 hours))"
same,Apoptosis HCT 116,[8],"+ (“+” means the induction of apoptosis at least 2 fold over mismatch control (50 nM, 48 hours))"
same,Growth Inhibition MCF-7,[9],"+ (“+” means >35% inhibition of cell growth by antisense oligos (50 nM, 48 hour) compared to that of cells treated with lipofectin)"
same,Apoptosis MCF-7,[10],"+ (“+” means the induction of apoptosis at least 2 fold over mismatch control (50 nM, 48 hours))"
same,"HDAC-1 RNA expression, screen",[11],antisense activity to human HDAC-1
same,Growth Inhibition A549,[12],"+ (“+” means >35% inhibition of cell growth by antisense oligos (50 nM, 48 hour) compared to that of cells treated with lipofectin)"
same,Growth Inhibition MDAmb 231,[13],"+ (“+” means >35% inhibition of cell growth by antisense oligos (50 nM, 48 hour) compared to that of cells treated with lipofectin)"
same,Growth Inhibition T24,[14],"+ (“+” means >35% inhibition of cell growth by antisense oligos (50 nM, 48 hour) compared to that of cells treated with lipofectin)"
